Laboratory results reported in patent US12077503B2, “Substituted cyclic amides and their use as herbicides” (FMC CORPORATION, priority 2015, dated 2024).

Assays:
Assay type in all cases: in vivo
[1] = system: Kochia (Kochia scoparia); assay: Test A preemergence; conditions: Bassia scoparia, pre-emergence, 240 h, preemergence, 0 to 100 scale where 0 is no effect and 100 is complete control, read-out: Kochia plant response rating; for pest or weed control at 125 g/ha: 125 g ai/ha, approx. 10 d; for pest or weed control at 500 g/ha: 500 g ai/ha
Procedure, shortened: (§1)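 Visual injury scores from 0, no effect, to 100, complete control, were assigned versus untreated controls roughly 10 d after treatment in the greenhouse. Test chemicals, formulated with surfactant in a non-phytotoxic solvent, were applied to planted seeds as a preemergence soil spray or postemergence to one- to two-leaf plants 2 to 10 cm tall, in loam–sand soil.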

[2] = system: ragweed (common ragweed, Ambrosia elatior); assay: Test A preemergence; conditions: Ambrosia artemisiifolia, pre-emergence, 240 h, preemergence, 0 to 100 scale where 0 is no effect and 100 is complete control, read-out: Ragweed plant response rating; for pest or weed control at 125 g/ha: 125 g ai/ha, approx. 10 d; for pest or weed control at 500 g/ha: 500 g ai/ha
Procedure, shortened: as §1

[3] = system: pigweed (Amaranthus retroflexus); assay: Test A preemergence; conditions: Amaranthus retroflexus, pre-emergence, 240 h, preemergence, 0 to 100 scale where 0 is no effect and 100 is complete control, read-out: Pigweed plant response rating; for pest or weed control at 125 g/ha: 125 g ai/ha, approx. 10 d; for pest or weed control at 500 g/ha: 500 g ai/ha
[4] = system: ryegrass, Italian (Italian ryegrass, Lolium multiflorum); assay: Test A preemergence; conditions: Lolium multiflorum, pre-emergence, 240 h, preemergence, 0 to 100 scale where 0 is no effect and 100 is complete control, read-out: Ryegrass, Italian plant response rating; for pest or weed control at 125 g/ha: 125 g ai/ha, approx. 10 d; for pest or weed control at 500 g/ha: 500 g ai/ha
Procedure, shortened: as §1

[5] = system: barnyardgrass (Echinochloa crus-galli); assay: Test A preemergence; conditions: Echinochloa crus-galli, pre-emergence, 240 h, preemergence, 0 to 100 scale where 0 is no effect and 100 is complete control, read-out: Barnyardgrass plant response rating; for pest or weed control at 125 g/ha: 125 g ai/ha, approx. 10 d; for pest or weed control at 500 g/ha: 500 g ai/ha
Procedure, shortened: as §1

[6] = system: giant foxtail (Setaria faberii); assay: Test A preemergence; conditions: Setaria faberi, pre-emergence, 240 h, preemergence, 0 to 100 scale where 0 is no effect and 100 is complete control, read-out: Foxtail, Giant plant response rating; for pest or weed control at 125 g/ha: 125 g ai/ha, approx. 10 d; for pest or weed control at 500 g/ha: 500 g ai/ha
Procedure, shortened: as §1

[7] = system: blackgrass (Alopecurus myosuroides); assay: Test A postemergence; conditions: Alopecurus myosuroides, post-emergence, 240 h, postemergence; for pest or weed control at 125 g/ha: 125 g ai/ha, visual injury vs untreated controls after approx. 10 d, 0 = no effect, 100 = complete control, read-out: Blackgrass plant response rating (0 to 100 scale); for pest or weed control at 500 g/ha: 500 g ai/ha, 0 to 100 scale, 0 is no effect, 100 is complete control, read-out: Blackgrass plant response rating
Procedure, shortened: as §1

[8] = system: Kochia (Kochia scoparia); assay: Test A postemergence; conditions: Bassia scoparia, post-emergence, 240 h, postemergence; for pest or weed control at 125 g/ha: 125 g ai/ha, visual injury vs untreated controls after approx. 10 d, 0 = no effect, 100 = complete control, read-out: Kochia plant response rating (0 to 100 scale); for pest or weed control at 500 g/ha: 500 g ai/ha, 0 to 100 scale, 0 is no effect, 100 is complete control, read-out: Kochia plant response rating
Procedure, shortened: as §1

[9] = system: wheat (Triticum aestivum); assay: Test A postemergence; conditions: Triticum aestivum, post-emergence, 240 h, postemergence; for plant injury at 125 g/ha: 125 g ai/ha, visual injury vs untreated controls after approx. 10 d, 0 = no effect, 100 = complete control, read-out: Wheat plant response rating (0 to 100 scale); for plant injury at 500 g/ha: 500 g ai/ha, 0 to 100 scale, 0 is no effect, 100 is complete control, read-out: Wheat plant response rating
Procedure, shortened: as §1

[10] = system: ragweed (common ragweed, Ambrosia elatior); assay: Test A postemergence; conditions: Ambrosia artemisiifolia, post-emergence, 240 h, postemergence; for pest or weed control at 125 g/ha: 125 g ai/ha, visual injury vs untreated controls after approx. 10 d, 0 = no effect, 100 = complete control, read-out: Ragweed plant response rating (0 to 100 scale); for pest or weed control at 500 g/ha: 500 g ai/ha, 0 to 100 scale, 0 is no effect, 100 is complete control, read-out: Ragweed plant response rating
Procedure, shortened: as §1

[11] = system: pigweed (Amaranthus retroflexus); assay: Test A postemergence; conditions: Amaranthus retroflexus, post-emergence, 240 h, postemergence; for pest or weed control at 125 g/ha: 125 g ai/ha, visual injury vs untreated controls after approx. 10 d, 0 = no effect, 100 = complete control, read-out: Pigweed plant response rating (0 to 100 scale); for pest or weed control at 500 g/ha: 500 g ai/ha, 0 to 100 scale, 0 is no effect, 100 is complete control, read-out: Pigweed plant response rating
Procedure, shortened: as §1

[12] = system: ryegrass, Italian (Italian ryegrass, Lolium multiflorum); assay: Test A postemergence; conditions: Lolium multiflorum, post-emergence, 240 h, postemergence; for pest or weed control at 125 g/ha: 125 g ai/ha, visual injury vs untreated controls after approx. 10 d, 0 = no effect, 100 = complete control, read-out: Ryegrass, Italian plant response rating (0 to 100 scale); for pest or weed control at 500 g/ha: 500 g ai/ha, 0 to 100 scale, 0 is no effect, 100 is complete control, read-out: Ryegrass, Italian plant response rating
Procedure, shortened: as §1

[13] = system: Galium (catchweed bedstraw, Galium aparine); assay: Test A postemergence; conditions: Galium, post-emergence, 240 h, postemergence; for pest or weed control at 125 g/ha: 125 g ai/ha, visual injury vs untreated controls after approx. 10 d, 0 = no effect, 100 = complete control, read-out: Galium plant response rating (0 to 100 scale); for pest or weed control at 500 g/ha: 500 g ai/ha, 0 to 100 scale, 0 is no effect, 100 is complete control, read-out: Galium plant response rating
Procedure, shortened: as §1

[14] = system: corn (Zea mays); assay: Test A postemergence; conditions: Zea mays, post-emergence, 240 h, postemergence; for plant injury at 125 g/ha: 125 g ai/ha, visual injury vs untreated controls after approx. 10 d, 0 = no effect, 100 = complete control, read-out: Corn plant response rating (0 to 100 scale); for plant injury at 500 g/ha: 500 g ai/ha, 0 to 100 scale, 0 is no effect, 100 is complete control, read-out: Corn plant response rating
Procedure, shortened: as §1

[15] = system: barnyardgrass (Echinochloa crus-galli); assay: Test A postemergence; conditions: Echinochloa crus-galli, post-emergence, 240 h, postemergence; for pest or weed control at 125 g/ha: 125 g ai/ha, visual injury vs untreated controls after approx. 10 d, 0 = no effect, 100 = complete control, read-out: Barnyardgrass plant response rating (0 to 100 scale); for pest or weed control at 500 g/ha: 500 g ai/ha, 0 to 100 scale, 0 is no effect, 100 is complete control, read-out: Barnyardgrass plant response rating
Procedure, shortened: as §1

[16] = system: giant foxtail (Setaria faberii); assay: Test A postemergence; conditions: Setaria faberi, post-emergence, 240 h, postemergence; for pest or weed control at 125 g/ha: 125 g ai/ha, visual injury vs untreated controls after approx. 10 d, 0 = no effect, 100 = complete control, read-out: Foxtail, Giant plant response rating (0 to 100 scale); for pest or weed control at 500 g/ha: 500 g ai/ha, 0 to 100 scale, 0 is no effect, 100 is complete control, read-out: Foxtail, Giant plant response rating
Procedure, shortened: as §1

CCc1cc([C@H]2CN(C)C(=O)[C@@H]2C(=O)Nc2cccc(F)c2F)cs1 [Compound 1157]
pest or weed control at 125 g/ha [1]: 90% | pest or weed control at 500 g/ha [1]: 90% | pest or weed control at 125 g/ha [2]: 0% | pest or weed control at 500 g/ha [2]: 80% | pest or weed control at 125 g/ha [3]: 30% | pest or weed control at 500 g/ha [3]: 60% | pest or weed control at 125 g/ha [4]: 30% | pest or weed control at 500 g/ha [4]: 90% | pest or weed control at 125 g/ha [5]: 90% | pest or weed control at 500 g/ha [5]: 90% | pest or weed control at 125 g/ha [6]: 90% | pest or weed control at 500 g/ha [6]: 100% | pest or weed control at 125 g/ha [7]: 0% | pest or weed control at 500 g/ha [7]: 50% | pest or weed control at 125 g/ha [8]: 0% | pest or weed control at 500 g/ha [8]: 50% | plant injury at 125 g/ha [9]: 30% | plant injury at 500 g/ha [9]: 70% | pest or weed control at 125 g/ha [10]: 0% | pest or weed control at 500 g/ha [10]: 50% | pest or weed control at 125 g/ha [11]: 0% | pest or weed control at 500 g/ha [11]: 0% | pest or weed control at 125 g/ha [12]: 0% | pest or weed control at 500 g/ha [12]: 40% | pest or weed control at 125 g/ha [13]: 50% | pest or weed control at 500 g/ha [13]: 60% | plant injury at 125 g/ha [14]: 40% | plant injury at 500 g/ha [14]: 50% | pest or weed control at 125 g/ha [15]: 90% | pest or weed control at 500 g/ha [15]: 90% | pest or weed control at 125 g/ha [16]: 90% | pest or weed control at 500 g/ha [16]: 90%

CN1CC[C@H](c2cccc(C(F)(F)F)c2)[C@@H](C(=O)Nc2cccc(F)c2Cl)C1=O [Compound 1158]
pest or weed control at 125 g/ha [1]: 30% | pest or weed control at 500 g/ha [1]: 30% | pest or weed control at 125 g/ha [2]: 0% | pest or weed control at 500 g/ha [2]: 0% | pest or weed control at 125 g/ha [3]: 0% | pest or weed control at 500 g/ha [3]: 0% | pest or weed control at 125 g/ha [4]: 60% | pest or weed control at 500 g/ha [4]: 70% | pest or weed control at 125 g/ha [5]: 90% | pest or weed control at 500 g/ha [5]: 100% | pest or weed control at 125 g/ha [6]: 100% | pest or weed control at 500 g/ha [6]: 100% | pest or weed control at 125 g/ha [7]: 20% | pest or weed control at 500 g/ha [7]: 40% | pest or weed control at 125 g/ha [8]: 0% | pest or weed control at 500 g/ha [8]: 0% | plant injury at 125 g/ha [9]: 30% | plant injury at 500 g/ha [9]: 50% | pest or weed control at 125 g/ha [10]: 0% | pest or weed control at 500 g/ha [10]: 0% | pest or weed control at 125 g/ha [11]: 0% | pest or weed control at 500 g/ha [11]: 0% | pest or weed control at 125 g/ha [12]: 30% | pest or weed control at 500 g/ha [12]: 50% | pest or weed control at 125 g/ha [13]: 20% | pest or weed control at 500 g/ha [13]: 30% | plant injury at 125 g/ha [14]: 20% | plant injury at 500 g/ha [14]: 60% | pest or weed control at 125 g/ha [15]: 90% | pest or weed control at 500 g/ha [15]: 90% | pest or weed control at 125 g/ha [16]: 80% | pest or weed control at 500 g/ha [16]: 80%

O=C1NC[C@H](c2cccc(I)c2)[C@H]1C(=O)Nc1ccccc1F [Compound 1160]
pest or weed control at 125 g/ha [1]: 0% | pest or weed control at 500 g/ha [1]: 50% | pest or weed control at 125 g/ha [2]: 0% | pest or weed control at 500 g/ha [2]: 0% | pest or weed control at 125 g/ha [3]: 0% | pest or weed control at 500 g/ha [3]: 20% | pest or weed control at 125 g/ha [4]: 0% | pest or weed control at 500 g/ha [4]: 0% | pest or weed control at 125 g/ha [5]: 90% | pest or weed control at 500 g/ha [5]: 90% | pest or weed control at 125 g/ha [6]: 90% | pest or weed control at 500 g/ha [6]: 90% | pest or weed control at 125 g/ha [7]: 0% | pest or weed control at 500 g/ha [7]: 50% | pest or weed control at 125 g/ha [8]: 0% | pest or weed control at 500 g/ha [8]: 20% | plant injury at 125 g/ha [9]: 20% | plant injury at 500 g/ha [9]: 50% | pest or weed control at 125 g/ha [10]: 0% | pest or weed control at 500 g/ha [10]: 0% | pest or weed control at 125 g/ha [11]: 0% | pest or weed control at 500 g/ha [11]: 0% | pest or weed control at 125 g/ha [12]: 20% | pest or weed control at 500 g/ha [12]: 20% | pest or weed control at 125 g/ha [13]: 0% | pest or weed control at 500 g/ha [13]: 60% | plant injury at 125 g/ha [14]: 40% | plant injury at 500 g/ha [14]: 80% | pest or weed control at 125 g/ha [15]: 80% | pest or weed control at 500 g/ha [15]: 90% | pest or weed control at 125 g/ha [16]: 80% | pest or weed control at 500 g/ha [16]: 90%
